Reference: patent US20250382251A1, “ALDEHYDE COMPOSITION” (MITSUBISHI GAS CHEMICAL COMPANY, INC., priority 2022, published 2025)

Legend:
[1] = Evaluation of threshold of smell; details: diluted with dipropylene glycol, 10 to 0.001 ppm; lower limit concentration at which the smell can be identified
Bhas42 cells = experiment: Carcinogenicity prediction test (transformation test, OECD 231GD); assay type: cell-based; details: in vitro transformation test using Bhas42 cells, negative or positive
Protocol: Using the aldehyde compositions obtained in Examples and Lilial (3-(p-tert-butylphenyl)-2-methylpropanal), a transformation test (an in vitro carcinogenicity prediction test using Bhas42 cells) was performed based on OECD 231GD to determine whether the carcinogenicity was negative or positive. When the result of this test is negative, it is predicted that there is no possibility of causing carcinogenicity, and safety is high.

SMILES: CC(C=O)Cc1ccc(C(C)(C)C)cc1 (centres unmarked) [Comparative Example 2, 3-(p-tert-butylphenyl)-2-methylpropanal]
- Threshold of smell (ppm) [1]: 1 ppm
- Carcinogenicity prediction test (Bhas42 cells): Positive
